From patent US9790230B2 (Hoffmann-La Roche Inc., priority 2015, dated 2017) come the findings set out here.

For assay [1], the target named is rat TAAR1 (Rattus norvegicus (Rat), UniProt Q923Y9). Description: Radioligand binding assay on rat TAAR1.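 Further: membranes from HEK293 cells stably transfected with rat TAAR1, tritiated TAAR1 radioligand, 1 h incubation at 4 °C, nonspecific binding determined with excess unlabeled ligand.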
The target of assay [2] is mouse TAAR1 (Mus musculus (Mouse), UniProt Q923Y8). Description: Radioligand binding assay on mouse TAAR1.
The mark [3] stands for this setting: read-out: Ki (μM) rat, rat TAAR1, HEK-293 membranes, second value of cell mouse/rat.
Where [4] appears, read: read-out: Ki (μM) mouse, mouse TAAR1, HEK-293 membranes, first value of cell mouse/rat.

In general, Ki refers to the dissociation constant of the complex between target and ligand, obtained from inhibition or displacement. The term Kd denotes the constant that tells how readily two partners part at equilibrium.

Where two headings read alike, the source gives them in different places.

Chain of mouse TAAR1 (Q923Y8 whole entry): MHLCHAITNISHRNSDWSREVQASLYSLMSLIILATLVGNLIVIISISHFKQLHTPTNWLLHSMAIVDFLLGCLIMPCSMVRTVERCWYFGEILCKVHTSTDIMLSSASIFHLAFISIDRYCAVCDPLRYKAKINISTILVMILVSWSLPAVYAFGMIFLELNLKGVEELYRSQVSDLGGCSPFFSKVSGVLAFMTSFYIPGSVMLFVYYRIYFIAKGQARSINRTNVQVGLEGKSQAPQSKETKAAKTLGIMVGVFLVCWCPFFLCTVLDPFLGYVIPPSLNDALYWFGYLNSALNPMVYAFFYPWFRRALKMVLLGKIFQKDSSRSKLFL
Chain of rat TAAR1 (Q923Y9 whole entry): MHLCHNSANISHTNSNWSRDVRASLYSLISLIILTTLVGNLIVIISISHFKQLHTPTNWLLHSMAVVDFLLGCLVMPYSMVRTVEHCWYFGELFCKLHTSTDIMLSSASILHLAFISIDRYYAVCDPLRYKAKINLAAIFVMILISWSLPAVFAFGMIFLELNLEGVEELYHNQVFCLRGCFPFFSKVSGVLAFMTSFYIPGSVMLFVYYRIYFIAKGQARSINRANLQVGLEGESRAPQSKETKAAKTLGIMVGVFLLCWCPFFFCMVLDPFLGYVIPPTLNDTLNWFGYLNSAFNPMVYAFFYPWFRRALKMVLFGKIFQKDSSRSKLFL

For the compound `FC(F)(F)c1cnc(Nc2ccc([C@H]3O[C@@H]4CN[C@H]3C4)cc2)nc1` [Example 23, N-[4-[(1S,3R,4S)-2-Oxa-5-azabicyclo[2.2.1]heptan-3-yl]phenyl]-5-(trifluoromethyl)pyrimidin-2-amine], the Ki in assay [1] came out at 0.146 µM; in assay [2] it was 0.0157 µM.

`CC(C)c1n[nH]c(C(=O)Nc2ccc([C@@H]3O[C@H]4CN[C@@H]3C4)cc2)c1Cl` [Example 102, 4-Chloro-3-isopropyl-N-[4-[(1R,3S,4R)-2-oxa-5-azabicyclo[2.2.1]heptan-3-yl]phenyl]-11H-pyrazole-5-carboxamide]: the Ki in assay [1] (setting [3]) is 0.0142 µM; in assay [2] (setting [4]), 0.0089 µM.

With `CCc1n[nH]c(C(=O)Nc2ccc([C@H]3O[C@@H]4CN[C@H]3C4)cc2)c1C` [Example 50, 3-Ethyl-4-methyl-N-[4-[(1S,3R,4S)-2-oxa-5-azabicyclo[2.2.1]heptan-3-yl]phenyl]-1H-pyrazole-5-carboxamide], the Ki turned out to be 0.344 µM in assay [1] and 0.0128 µM in assay [2].

Consider `Cc1n[nH]c(C(=O)Nc2ccc([C@H]3O[C@@H]4CN[C@H]3C4)cc2)c1Cl` [Example 46, 4-Chloro-3-methyl-N-[4-[(1S,3R,4S)-2-oxa-5-azabicyclo[2.2.1]heptan-3-yl]phenyl]-1H-pyrazole-5-carboxamide], for which the values for the Ki in assay [1] and in assay [2] were 0.673 µM and 0.0098 µM, respectively.

Take `O=C(Nc1ccc([C@H]2O[C@@H]3CN[C@H]2C3)cc1)c1ccc(Cl)cc1` [Example 14, 4-Chloro-N-[4-[(1S,3R,4S)-2-oxa-5-azabicyclo[2.2.1]heptan-3-yl]phenyl]benzamide]: the figures for the Ki in assay [1] and in assay [2] were 0.192 µM and 0.005 µM, respectively.

With `O=C(NCc1ccc(C(F)(F)F)cc1)c1ccc([C@@H]2O[C@H]3CN[C@@H]2C3)cc1` [Example 96, 4-[(1R,3S,4R)-2-Oxa-5-azabicyclo[2.2.1]heptan-3-yl]-N-[[4-(trifluoromethyl)phenyl]methyl]benzamide], the Ki in assay [1] was more than 1.45 µM; in assay [2], 0.0477 µM.

In the case of `O=C(Nc1ccc([C@@H]2O[C@H]3CN[C@@H]2C3)cc1)c1ccc(OCC2CC2)cc1` [Example 12, 4-(Cyclopropylmethoxy)-N-[4-[(1R,3S,4R)-2-oxa-5-azabicyclo[2.2.1]heptan-3-yl]phenyl]benzamide], the results for the Ki in assay [1] and in assay [2] were 0.134 µM and 0.0067 µM, respectively.

With `CCOc1ccc(C(=O)Nc2ccc([C@@H]3O[C@H]4CN[C@@H]3C4)cc2)cc1` [Example 28, 4-Ethoxy-N-[4-[(1R,3S,4R)-2-oxa-5-azabicyclo[2.2.1]heptan-3-yl]phenyl]benzamide], the inhibition constant (Ki) in assay [1] came out at 0.178 µM; in assay [2] it was 0.0043 µM.

Regarding `O=C(Nc1ccc([C@@H]2O[C@H]3CN[C@@H]2C3)cc1)c1ccc(C(F)(F)F)nc1` [Example 72, N-[4-[(1R,3S,4R)-2-Oxa-5-azabicyclo[2.2.1]heptan-3-yl]phenyl]-6-(trifluoromethyl)pyridine-3-carboxamide], the Ki in assay [1] was found to be 0.0093 µM; in assay [2], 0.0153 µM.

For the compound `O=C(Nc1ccc(F)cc1)c1ccc([C@H]2O[C@@H]3CN[C@H]2C3)cc1` [Example 57, N-(4-Fluorophenyl)-4-[(1S,3R,4S)-2-oxa-5-azabicyclo[2.2.1]heptan-3-yl]benzamide], the figures for the Ki in assay [1] and in assay [2] were 0.0458 µM and 0.0034 µM, respectively.

As for `CCOc1n[nH]c(C(=O)Nc2ccc([C@H]3O[C@@H]4CN[C@H]3C4)cc2)c1Cl` [Example 45, 4-Chloro-3-ethoxy-N-[4-[(1S,3R,4S)-2-oxa-5-azabicyclo[2.2.1]heptan-3-yl]phenyl]-1H-pyrazole-5-carboxamide], the figures for the Ki in assay [1] and in assay [2] were 0.21 µM and 0.0042 µM, respectively.

For `CC(C)c1cc(C(=O)Nc2ccc([C@H]3O[C@@H]4CN[C@H]3C4)cc2)[nH]n1` [Example 43, 3-Isopropyl-N-[4-[(1S,3R,4S)-2-oxa-5-azabicyclo[2.2.1]heptan-3-yl]phenyl]-1H-pyrazole-5-carboxamide], the Ki in assay [1] is 0.167 µM; in assay [2] it was 0.0144 µM.

Take `O=C(COCC(F)(F)F)Nc1ccc([C@@H]2O[C@H]3CN[C@@H]2C3)cc1` [Example 73, N-[4-[(1R,3S,4R)-2-Oxa-5-azabicyclo[2.2.1]heptan-3-yl]phenyl]-2-(2,2,2-trifluoroethoxy)acetamide]: the Ki in assay [1] came to 0.857 µM; in assay [2], 0.0177 µM.

On to `Brc1ccc([C@@H]2O[C@H]3CN[C@@H]2C3)cc1` [Example 54, (1R,3S,4R)-3-(4-Bromophenyl)-2-oxa-5-azabicyclo[2.2.1]heptane], for which the Ki is 0.0346 µM in assay [1] and 0.145 µM in assay [2].

For the compound `O=C(COCCC(F)(F)F)Nc1ccc([C@@H]2O[C@H]3CN[C@@H]2C3)cc1` [Example 90, N-[4-[(1R,3S,4R)-2-Oxa-5-azabicyclo[2.2.1]heptan-3-yl]phenyl]-2-(3,3,3-trifluoropropoxy)acetamide], the figures for the Ki in assay [1] and in assay [2] were 0.398 µM and 0.015 µM, respectively.

As for `FC(F)(F)c1ccc(CNc2ccc([C@H]3O[C@@H]4CN[C@H]3C4)cc2)cc1` [Example 39, 4-[(1S,3R,4S)-2-Oxa-5-azabicyclo[2.2.1]heptan-3-yl]-N-[[4-(trifluoromethyl)phenyl]methyl]aniline], the Ki in assay [1] amounted to 0.359 µM; in assay [2], 0.0069 µM.

`CCCCc1cc(C(=O)Nc2ccc([C@@H]3O[C@H]4CN[C@@H]3C4)cc2)[nH]n1` [Example 93, 3-Butyl-N-[4-[(1R,3S,4R)-2-oxa-5-azabicyclo[2.2.1]heptan-3-yl]phenyl]-1H-pyrazole-5-carboxamide]: the Ki in assay [1] was 0.0803 µM; in assay [2], 0.0042 µM.

In the case of `CCN(C[C@H]1COC(N)=N1)c1ccccc1` [reference compound], the Kd is approximately 2.3 nM in assay [1] (read-out: dissociation constant (Kd) of the TAAR1 radioligand, rat TAAR1 membranes, saturation curve, usual value) and approximately 0.7 nM in assay [2] (read-out: dissociation constant (Kd) of the TAAR1 radioligand, mouse TAAR1 membranes, saturation curve, usual value).

Turning to `O=C(Nc1ccc(F)cc1)c1ccc([C@@H]2O[C@H]3CN[C@@H]2C3)cc1` [Example 87, N-(4-Fluorophenyl)-4-[(1R,3S,4R)-2-oxa-5-azabicyclo[2.2.1]heptan-3-yl]benzamide], the values for the Ki in assay [1] and in assay [2] were more than 1.45 µM and 0.145 µM, respectively.

Turning to `CCOc1ccc(C(=O)Nc2ccc([C@H]3O[C@@H]4CN[C@H]3C4)cc2)cc1` [Example 17, 4-Ethoxy-N-[4-[(1S,3R,4S)-2-oxa-5-azabicyclo[2.2.1]heptan-3-yl]phenyl]benzamide], the values for the Ki in assay [1] and in assay [2] were 0.693 µM and 0.0064 µM, respectively.

On to `CCc1n[nH]c(C(=O)Nc2ccc([C@@H]3O[C@H]4CN[C@@H]3C4)cc2)c1C` [Example 67, 3-Ethyl-4-methyl-N-[4-[(1R,3S,4R)-2-oxa-5-azabicyclo[2.2.1]heptan-3-yl]phenyl]-11H-pyrazole-5-carboxamide], for which the inhibition constant Ki in assay [1] (setting [3]) was determined as 0.503 µM; in assay [2] (setting [4]), 0.01 µM.

For the compound `O=C(Nc1cccc(Cl)c1)Nc1cccc([C@@H]2O[C@H]3CN[C@@H]2C3)c1` [Example 5, 1-(3-Chlorophenyl)-3-[3-[(1R,3S,4R)-2-oxa-5-azabicyclo[2.2.1]heptan-3-yl]phenyl]urea], the figures for the Ki in assay [1] and in assay [2] were 0.0192 µM and 1.33 µM, respectively.

Regarding `CCc1ncc(C(=O)Nc2ccc([C@@H]3O[C@H]4CN[C@@H]3C4)cc2)cn1` [Example 74, 2-Ethyl-N-[4-[(1R,3S,4R)-2-oxa-5-azabicyclo[2.2.1]heptan-3-yl]phenyl]pyrimidine-5-carboxamide], the Ki in assay [1] is 0.19 µM; in assay [2], 0.109 µM.

As for `O=C(Nc1ccc(Cl)cc1)c1ccc([C@@H]2O[C@H]3CN[C@@H]2C3)cc1` [Example 85], the Ki in assay [1] was 1.08 µM; in assay [2], 0.0164 µM.

Regarding `O=C(Nc1ccc([C@H]2O[C@@H]3CN[C@H]2C3)cc1)c1cccc(Cl)c1` [Example 8, 3-Chloro-N-[4-[(1S,3R,4S)-2-oxa-5-azabicyclo[2.2.1]heptan-3-yl]phenyl]benzamide], the Ki in assay [1] was 0.21 µM; in assay [2], 0.0046 µM.

`FC(F)(F)Oc1ccc(CNc2ccc([C@H]3O[C@@H]4CN[C@H]3C4)cc2)cc1` [Example 52, 4-[(1S,3R,4S)-2-Oxa-5-azabicyclo[2.2.1]heptan-3-yl]-N-[[4-(trifluoromethoxy)phenyl]methyl]aniline]: the Ki was found to be 0.194 µM in assay [1] and 0.0043 µM in assay [2].

Consider `O=C(Nc1ccc(C(F)(F)F)cc1)Nc1cccc([C@@H]2O[C@H]3CN[C@@H]2C3)c1` [Example 3, 1-[3-[(1R,3S,4R)-2-Oxa-5-azabicyclo[2.2.1]heptan-3-yl]phenyl]-3-[4-(trifluoromethyl)phenyl]urea], for which the Ki in assay [1] came to 0.0029 µM; in assay [2], 0.986 µM.

Turning to `Fc1ccc(CNc2ccc([C@H]3O[C@@H]4CN[C@H]3C4)cc2)cc1` [Example 40, N-[(4-Fluorophenyl)methyl]-4-[(1S,3R,4S)-2-oxa-5-azabicyclo[2.2.1]heptan-3-yl]aniline], the Ki in assay [1] worked out at 0.19 µM; in assay [2], 0.636 µM.

Regarding `FC(F)(F)c1cnc(Nc2ccc([C@@H]3O[C@H]4CN[C@@H]3C4)cc2)cn1` [Example 30, N-[4-[(1R,3S,4R)-2-Oxa-5-azabicyclo[2.2.1]heptan-3-yl]phenyl]-5-(trifluoromethyl)pyrazin-2-amine], the Ki in assay [1] was 0.276 µM; in assay [2], 0.0291 µM.

As for `O=C(Nc1ccc([C@@H]2O[C@H]3CN[C@@H]2C3)cc1)c1cccc(Cl)c1` [Example 10, 3-Chloro-N-[4-[(1R,3S,4R)-2-oxa-5-azabicyclo[2.2.1]heptan-3-yl]phenyl]benzamide], the Ki is 0.055 µM in assay [1] and 0.0042 µM in assay [2].

Take `CCCc1n[nH]c(C(=O)Nc2ccc([C@@H]3O[C@H]4CN[C@@H]3C4)cc2)c1Cl` [Example 68, 4-Chloro-N-[4-[(1R,3S,4R)-2-oxa-5-azabicyclo[2.2.1]heptan-3-yl]phenyl]-3-propyl-1H-pyrazole-5-carboxamide]: the Ki is 0.0179 µM in assay [1] and 0.0031 µM in assay [2].

As to `O=C(Nc1ccc([C@@H]2O[C@H]3CN[C@@H]2C3)cc1)c1ccnc(C(F)(F)F)c1` [Example 26, N-[4-[(1R,3S,4R)-2-Oxa-5-azabicyclo[2.2.1]heptan-3-yl]phenyl]-2-(trifluoromethyl)pyridine-4-carboxamide], the Ki in assay [1] is 0.137 µM; in assay [2] it was 0.0223 µM.
